Inhibition and IC50 data for 16 molecules are collected here from ChEMBL document CHEMBL2380230, “Potency switch between CHK1 and MK2: discovery of imidazo[1,2-a]pyrazine- and imidazo[1,2-c]pyrimidine-based kinase inhibitors” (Bioorg Med Chem Lett, 2013).

The target in assay [1] is T1, MAP kinase-activated protein kinase 2 (Homo sapiens, UniProt P49137). The assay is described as follows: Inhibition of human recombinant MK2 at 10 uM.
Target sequence in this assay (P49137 whole entry, looked up): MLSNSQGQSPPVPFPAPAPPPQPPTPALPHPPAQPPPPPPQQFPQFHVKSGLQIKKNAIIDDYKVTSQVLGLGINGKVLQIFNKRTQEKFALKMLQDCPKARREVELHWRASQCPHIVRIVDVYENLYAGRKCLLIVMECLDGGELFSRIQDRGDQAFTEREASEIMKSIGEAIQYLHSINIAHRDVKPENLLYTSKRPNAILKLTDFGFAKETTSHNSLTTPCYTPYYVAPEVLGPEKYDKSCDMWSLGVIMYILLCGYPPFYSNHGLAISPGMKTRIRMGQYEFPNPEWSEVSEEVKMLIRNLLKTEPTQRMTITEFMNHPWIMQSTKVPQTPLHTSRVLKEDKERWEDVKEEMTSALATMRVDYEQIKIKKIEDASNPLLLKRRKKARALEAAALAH
Assay [2] deals with T2, Serine/threonine-protein kinase Chk1 (Homo sapiens, UniProt O14757).
T2 sequence (O14757 whole entry): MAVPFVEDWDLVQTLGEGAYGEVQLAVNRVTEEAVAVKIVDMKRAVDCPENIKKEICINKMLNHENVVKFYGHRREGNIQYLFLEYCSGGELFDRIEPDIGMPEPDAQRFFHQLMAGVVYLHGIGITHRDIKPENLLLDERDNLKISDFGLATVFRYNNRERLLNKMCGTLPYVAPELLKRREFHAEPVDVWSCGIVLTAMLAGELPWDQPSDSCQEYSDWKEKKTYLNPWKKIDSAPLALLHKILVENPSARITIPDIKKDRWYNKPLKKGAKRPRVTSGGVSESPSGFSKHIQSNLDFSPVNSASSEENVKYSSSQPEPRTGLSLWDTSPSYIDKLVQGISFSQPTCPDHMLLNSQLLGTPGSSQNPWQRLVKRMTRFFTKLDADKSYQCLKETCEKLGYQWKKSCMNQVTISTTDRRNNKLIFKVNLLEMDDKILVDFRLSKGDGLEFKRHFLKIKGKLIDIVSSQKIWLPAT
The assay is described as follows: Inhibition of CHK1 (unknown origin).

Assay [3] concerns the target T1, MAP kinase-activated protein kinase 2. The assay is described as follows: Inhibition of human recombinant MK2.
Target sequence in this assay (P49137 whole entry): as the sequence (P49137 whole entry, looked up) above
Assay [4] has as its target Tyrosine-protein kinase Lck (Homo sapiens, UniProt P06239). The assay is described as follows: Inhibition of human LCK.
Assay [5] deals with Casein kinase I isoform delta (Homo sapiens, UniProt P48730). The assay is described as follows: Inhibition of human CSNK1D.
In assay [6] the target is T3, Testis-specific serine/threonine-protein kinase 2 (Homo sapiens, UniProt Q96PF2).
T3 sequence (Q96PF2 whole entry): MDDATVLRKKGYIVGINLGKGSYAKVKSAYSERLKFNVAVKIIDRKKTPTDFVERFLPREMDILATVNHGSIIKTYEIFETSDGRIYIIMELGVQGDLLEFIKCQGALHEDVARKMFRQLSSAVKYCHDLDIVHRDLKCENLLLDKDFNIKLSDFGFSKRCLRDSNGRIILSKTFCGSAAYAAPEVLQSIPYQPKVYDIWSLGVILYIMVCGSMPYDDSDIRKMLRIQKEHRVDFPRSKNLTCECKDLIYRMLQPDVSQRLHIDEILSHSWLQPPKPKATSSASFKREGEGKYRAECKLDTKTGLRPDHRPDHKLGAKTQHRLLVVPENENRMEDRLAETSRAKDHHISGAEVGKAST
The assay is described as follows: Inhibition of human TSSK2.

The target in assay [7] is Tyrosine-protein kinase JAK2 (Homo sapiens, UniProt O60674). The assay is described as follows: Inhibition of human JAK2.
Assay [8] deals with Insulin-like growth factor 1 receptor (Homo sapiens, UniProt P08069). The assay is described as follows: Inhibition of human IGF1R.
In assay [9] the target is Mitogen-activated protein kinase 1 (Homo sapiens, UniProt P28482). The assay is described as follows: Inhibition of human ERK2.
Assay [10] addresses Hepatocyte growth factor receptor (Homo sapiens, UniProt P08581). The assay is described as follows: Inhibition of human MET.
The target of assay [11] is RAC-alpha serine/threonine-protein kinase (Homo sapiens, UniProt P31749). The assay is described as follows: Inhibition of human AKT1.
The target in assay [12] is T4, Inhibitor of nuclear factor kappa-B kinase subunit beta (Homo sapiens, UniProt O14920).
T4 sequence (O14920 whole entry): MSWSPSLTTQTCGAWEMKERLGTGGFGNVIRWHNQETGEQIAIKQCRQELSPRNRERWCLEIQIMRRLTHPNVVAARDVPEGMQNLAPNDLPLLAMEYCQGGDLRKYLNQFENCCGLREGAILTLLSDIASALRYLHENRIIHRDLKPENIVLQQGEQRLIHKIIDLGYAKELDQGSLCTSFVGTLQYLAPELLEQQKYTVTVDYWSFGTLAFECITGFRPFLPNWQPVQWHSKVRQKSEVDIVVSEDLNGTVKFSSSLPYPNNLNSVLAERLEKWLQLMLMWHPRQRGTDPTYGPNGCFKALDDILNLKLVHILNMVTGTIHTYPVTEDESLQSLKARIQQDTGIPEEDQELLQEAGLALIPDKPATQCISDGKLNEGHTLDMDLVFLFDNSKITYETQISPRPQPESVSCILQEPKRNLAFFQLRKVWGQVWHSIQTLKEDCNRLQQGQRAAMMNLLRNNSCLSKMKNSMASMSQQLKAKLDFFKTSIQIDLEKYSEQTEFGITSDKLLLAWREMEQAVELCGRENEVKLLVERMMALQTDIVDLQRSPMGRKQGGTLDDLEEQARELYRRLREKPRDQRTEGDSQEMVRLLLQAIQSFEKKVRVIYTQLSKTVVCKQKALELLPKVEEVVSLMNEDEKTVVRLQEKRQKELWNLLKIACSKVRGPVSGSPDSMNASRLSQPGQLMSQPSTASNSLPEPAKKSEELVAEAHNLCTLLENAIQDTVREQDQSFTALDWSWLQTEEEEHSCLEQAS
The assay is described as follows: Inhibition of human IKKB.

Where only a bound is given, the exact number is not on record here.

Sequence of Hepatocyte growth factor receptor (P08581 whole entry): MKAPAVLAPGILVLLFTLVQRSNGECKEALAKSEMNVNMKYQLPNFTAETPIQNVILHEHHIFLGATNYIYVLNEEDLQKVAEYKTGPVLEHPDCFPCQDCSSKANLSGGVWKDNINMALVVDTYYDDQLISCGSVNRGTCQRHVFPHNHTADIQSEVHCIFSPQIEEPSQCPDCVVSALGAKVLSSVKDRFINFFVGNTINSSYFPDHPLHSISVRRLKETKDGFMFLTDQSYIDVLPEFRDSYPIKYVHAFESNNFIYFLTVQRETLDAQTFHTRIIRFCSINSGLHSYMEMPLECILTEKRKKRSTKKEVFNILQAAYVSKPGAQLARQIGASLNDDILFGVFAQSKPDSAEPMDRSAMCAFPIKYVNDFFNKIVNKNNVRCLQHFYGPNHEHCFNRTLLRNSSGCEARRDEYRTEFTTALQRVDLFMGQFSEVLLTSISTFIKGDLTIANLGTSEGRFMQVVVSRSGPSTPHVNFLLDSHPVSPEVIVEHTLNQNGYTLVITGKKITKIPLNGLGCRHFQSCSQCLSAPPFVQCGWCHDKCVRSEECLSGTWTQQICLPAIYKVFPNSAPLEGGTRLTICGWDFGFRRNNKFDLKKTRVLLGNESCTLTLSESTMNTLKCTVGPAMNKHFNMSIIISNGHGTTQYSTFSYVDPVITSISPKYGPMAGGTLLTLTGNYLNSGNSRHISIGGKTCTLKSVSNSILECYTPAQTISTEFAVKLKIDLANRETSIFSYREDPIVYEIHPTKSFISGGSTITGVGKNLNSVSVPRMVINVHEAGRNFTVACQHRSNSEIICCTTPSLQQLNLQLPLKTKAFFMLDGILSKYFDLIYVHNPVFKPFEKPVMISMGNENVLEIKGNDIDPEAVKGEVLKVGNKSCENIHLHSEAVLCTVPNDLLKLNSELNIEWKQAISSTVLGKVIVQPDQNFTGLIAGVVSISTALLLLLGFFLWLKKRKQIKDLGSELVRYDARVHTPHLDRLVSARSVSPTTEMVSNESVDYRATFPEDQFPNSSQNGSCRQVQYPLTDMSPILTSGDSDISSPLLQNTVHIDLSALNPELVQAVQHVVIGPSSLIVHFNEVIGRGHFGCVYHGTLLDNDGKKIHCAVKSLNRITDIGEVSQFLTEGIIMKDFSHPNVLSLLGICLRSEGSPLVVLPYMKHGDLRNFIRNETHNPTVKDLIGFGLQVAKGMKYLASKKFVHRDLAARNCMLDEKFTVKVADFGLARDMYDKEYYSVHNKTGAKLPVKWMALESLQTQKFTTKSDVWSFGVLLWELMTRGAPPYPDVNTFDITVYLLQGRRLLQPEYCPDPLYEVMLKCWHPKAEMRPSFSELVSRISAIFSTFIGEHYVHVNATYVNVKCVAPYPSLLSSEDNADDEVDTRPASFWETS
Sequence of Insulin-like growth factor 1 receptor (P08069 31-736 limits assumed): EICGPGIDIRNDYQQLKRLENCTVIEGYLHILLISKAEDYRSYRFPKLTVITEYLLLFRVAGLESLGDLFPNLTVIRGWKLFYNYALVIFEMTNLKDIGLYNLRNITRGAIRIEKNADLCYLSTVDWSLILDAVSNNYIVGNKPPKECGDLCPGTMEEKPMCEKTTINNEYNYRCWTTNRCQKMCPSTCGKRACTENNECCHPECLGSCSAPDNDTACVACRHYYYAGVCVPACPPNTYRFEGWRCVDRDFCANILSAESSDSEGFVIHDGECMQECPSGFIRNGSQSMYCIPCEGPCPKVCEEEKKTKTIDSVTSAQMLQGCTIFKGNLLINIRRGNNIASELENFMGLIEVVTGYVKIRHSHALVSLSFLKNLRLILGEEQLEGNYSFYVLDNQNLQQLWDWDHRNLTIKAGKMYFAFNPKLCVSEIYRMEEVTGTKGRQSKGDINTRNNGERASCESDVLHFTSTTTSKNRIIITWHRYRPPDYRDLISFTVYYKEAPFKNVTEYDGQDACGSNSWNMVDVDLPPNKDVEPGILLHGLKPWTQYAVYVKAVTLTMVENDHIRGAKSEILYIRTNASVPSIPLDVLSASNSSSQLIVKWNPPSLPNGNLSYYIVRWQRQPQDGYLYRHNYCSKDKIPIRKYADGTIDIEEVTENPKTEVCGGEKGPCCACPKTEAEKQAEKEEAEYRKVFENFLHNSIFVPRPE
Sequence of Insulin-like growth factor 1 receptor (P08069 741-1367 limits assumed): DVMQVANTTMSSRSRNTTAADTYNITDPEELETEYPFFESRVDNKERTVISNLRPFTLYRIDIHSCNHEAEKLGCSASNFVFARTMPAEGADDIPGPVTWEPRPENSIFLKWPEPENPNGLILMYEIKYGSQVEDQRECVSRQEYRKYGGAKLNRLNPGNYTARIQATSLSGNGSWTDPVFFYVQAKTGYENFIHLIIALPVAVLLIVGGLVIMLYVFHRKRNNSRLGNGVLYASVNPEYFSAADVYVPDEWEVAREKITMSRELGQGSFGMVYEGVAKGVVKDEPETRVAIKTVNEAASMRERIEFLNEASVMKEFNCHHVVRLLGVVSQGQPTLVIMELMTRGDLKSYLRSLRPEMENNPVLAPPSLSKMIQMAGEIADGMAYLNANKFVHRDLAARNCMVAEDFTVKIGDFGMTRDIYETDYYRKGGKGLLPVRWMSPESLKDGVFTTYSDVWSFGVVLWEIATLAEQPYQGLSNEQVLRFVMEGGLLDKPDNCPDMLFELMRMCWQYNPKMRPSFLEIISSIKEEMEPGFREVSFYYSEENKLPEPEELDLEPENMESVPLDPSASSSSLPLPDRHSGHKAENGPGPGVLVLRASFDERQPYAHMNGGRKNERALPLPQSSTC
Sequence of Mitogen-activated protein kinase 1 (P28482 whole entry): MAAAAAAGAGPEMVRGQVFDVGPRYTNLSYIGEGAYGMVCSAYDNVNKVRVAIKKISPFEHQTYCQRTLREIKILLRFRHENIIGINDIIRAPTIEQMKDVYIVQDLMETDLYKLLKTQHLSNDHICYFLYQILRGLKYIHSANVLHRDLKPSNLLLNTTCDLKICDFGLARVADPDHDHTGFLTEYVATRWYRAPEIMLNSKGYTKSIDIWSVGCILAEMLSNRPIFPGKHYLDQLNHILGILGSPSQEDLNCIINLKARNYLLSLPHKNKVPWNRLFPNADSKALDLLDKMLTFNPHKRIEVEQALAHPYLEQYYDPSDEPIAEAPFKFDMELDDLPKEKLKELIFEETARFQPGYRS
Sequence of Tyrosine-protein kinase Lck (P06239 whole entry, canonical isoform): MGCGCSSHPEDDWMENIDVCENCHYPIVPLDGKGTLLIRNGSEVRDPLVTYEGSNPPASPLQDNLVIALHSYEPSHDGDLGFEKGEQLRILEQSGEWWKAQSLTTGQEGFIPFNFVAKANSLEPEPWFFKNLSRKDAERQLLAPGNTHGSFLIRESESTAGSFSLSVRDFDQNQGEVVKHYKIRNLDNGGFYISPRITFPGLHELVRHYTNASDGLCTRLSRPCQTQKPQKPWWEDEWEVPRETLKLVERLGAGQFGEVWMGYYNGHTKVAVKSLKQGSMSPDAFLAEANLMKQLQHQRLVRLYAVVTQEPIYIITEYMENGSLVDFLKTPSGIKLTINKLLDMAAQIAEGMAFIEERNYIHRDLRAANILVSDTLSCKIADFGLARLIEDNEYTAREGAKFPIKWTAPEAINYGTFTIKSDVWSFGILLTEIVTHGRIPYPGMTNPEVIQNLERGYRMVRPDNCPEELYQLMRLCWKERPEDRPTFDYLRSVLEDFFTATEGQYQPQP
Sequence of Casein kinase I isoform delta (P48730 whole entry, canonical isoform): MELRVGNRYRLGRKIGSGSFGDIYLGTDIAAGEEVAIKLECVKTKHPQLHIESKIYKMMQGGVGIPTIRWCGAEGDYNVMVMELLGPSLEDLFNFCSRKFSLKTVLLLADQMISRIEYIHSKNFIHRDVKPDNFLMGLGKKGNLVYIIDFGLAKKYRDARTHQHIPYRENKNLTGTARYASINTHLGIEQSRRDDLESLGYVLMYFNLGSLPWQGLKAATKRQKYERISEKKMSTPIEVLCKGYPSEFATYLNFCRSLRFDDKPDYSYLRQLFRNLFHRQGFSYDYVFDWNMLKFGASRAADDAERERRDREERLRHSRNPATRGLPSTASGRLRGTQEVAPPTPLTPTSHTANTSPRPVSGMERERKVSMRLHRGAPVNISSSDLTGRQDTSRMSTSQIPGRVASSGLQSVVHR
Sequence of RAC-alpha serine/threonine-protein kinase (P31749 whole entry): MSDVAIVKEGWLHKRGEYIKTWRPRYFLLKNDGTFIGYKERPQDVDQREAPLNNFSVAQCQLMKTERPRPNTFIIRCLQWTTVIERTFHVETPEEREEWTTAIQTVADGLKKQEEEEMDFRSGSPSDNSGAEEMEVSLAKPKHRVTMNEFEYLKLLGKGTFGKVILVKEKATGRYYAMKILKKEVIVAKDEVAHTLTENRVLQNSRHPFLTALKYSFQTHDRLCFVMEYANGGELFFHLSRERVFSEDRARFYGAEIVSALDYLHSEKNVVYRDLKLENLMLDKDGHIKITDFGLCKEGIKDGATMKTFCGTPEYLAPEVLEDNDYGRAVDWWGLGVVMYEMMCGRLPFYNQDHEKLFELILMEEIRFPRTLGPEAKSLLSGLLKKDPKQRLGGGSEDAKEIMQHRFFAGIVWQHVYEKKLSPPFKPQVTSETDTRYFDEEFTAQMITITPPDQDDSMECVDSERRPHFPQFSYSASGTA

For the molecule `NC(=O)c1cnc(N[C@@H]2CCNC2)n2cc(-c3ccc(Cl)cc3)nc12`, the inhibition (in general, how much of the control response was suppressed) in assay [1] was found to be 56%. The IC50 – broadly, the point on the concentration scale where inhibition reaches its midpoint – in assay [2] came to 42.1 µM.
Turning to `NC(=O)c1cnc(NCC2CCCNC2)n2cc(-c3ccc(Cl)cc3)nc12` (stereo not given), the inhibition in assay [1] came out at 61%. Further, inhibition in assay [2] was half-maximal at 50 µM (IC50).
As for `NC(=O)c1cnc(Nc2cccnc2)c2nc(-c3ccc(Cl)cc3)cn12`, the IC50 in assay [3] came out at 10 µM.
In the case of `NC(=O)c1ncc(N[C@H]2CCCNC2)c2nc(-c3ccc(Cl)cc3)cn12`, the IC50 stood at 0.84 µM in [3] and 0.018 µM in assay [2].
`NC(=O)c1cnc(N[C@H]2CCCNC2)c2nc(-c3ccc(F)cc3)cn12`: the IC50 stood at 0.91 µM in assay [3] and 0.027 µM in assay [2].
Consider `NC(=O)c1cnc(N[C@H]2CCCNC2)c2nc(-c3ccc4ccccc4c3)cn12`, for which the IC50 in assay [3] is 0.91 µM; in [2] it was 0.023 µM.
Regarding `NC(=O)c1cnc(N[C@H]2CC[C@H](N)CC2)n2cc(-c3ccc(Cl)cc3)nc12`, the figures for the IC50 in [3] and in [2] were 4 µM and 50 µM, respectively.
Consider `CN1CCC(Nc2ncc(C(N)=O)c3nc(-c4ccc(Cl)cc4)cn23)CC1`, for which the inhibition in assay [1] stood at 69%. The molecule further gave an IC50 in [2] of 50 µM.
In the case of `NC(=O)c1ncc(N[C@H]2CC[C@H](N)CC2)c2nc(-c3ccc(Cl)cc3)cn12`, the IC50 in [3] amounted to 1.98 µM.
Turning to `NC(=O)c1cnc(N[C@H]2CC[C@@H](N)CC2)c2nc(-c3ccc(Cl)cc3)cn12`, the IC50 in assay [3] stood at 1.9 µM.
As to `NC(=O)c1cnc(N[C@H]2CCCNC2)n2cc(-c3ccc(Cl)cc3)nc12`, the inhibition in [1] was 67%.
`NC(=O)c1cnc(N[C@H]2CC[C@H](N)CC2)c2nc(-c3ccc(Cl)cc3)cn12`: the IC50 in [4] was 1 µM; in [5] it was 12 µM; in assay [6] it was 12 µM; in [7], 13 µM; in [8] it was 12 µM; in assay [9], above 30 µM. Further, the IC50 in assay [10], in assay [11] and in assay [12] was above 30 µM each time.
Consider `NC(=O)c1cnc(NC2CCNCC2)c2nc(-c3ccc(Cl)cc3)cn12`, for which the IC50 turned out to be 4.15 µM in assay [3] and 0.69 µM in [2].
As to `NCCCNc1ncc(C(N)=O)n2cc(-c3ccc(Cl)cc3)nc12`, the IC50 in assay [3] stood at 4.09 µM; in assay [2], 0.29 µM.
With `CN[C@H]1CC[C@H](Nc2ncc(C(N)=O)n3cc(-c4ccc(Cl)cc4)nc23)CC1`, the IC50 in assay [3] was 0.4 µM; in assay [2], 0.89 µM.
Taken in the same sequence, the figures for `NC(=O)c1cnc(N[C@H]2CC[C@H](N)CC2)c2nc(-c3ccc(Cl)c(Cl)c3)cn12` were 0.82 µM and 5.07 µM.
